We go through eight compounds from US20070184175A1, “CONTINUOUS PRODUCTION OF CEREAL FLOUR AND WHOLE-CEREAL FLOUR FOR GRAIN-BASED FOODS, USING A LOW-MOISTURE PRECOOKING” (priority 2005, published 2007).

On the set-up of data set [1]: concentration or dose not given beside the values. Conditions: Kikuzaki et al. (2002); cited from earlier work.
A short description of data set [2]: ABTS radical scavenging assay. The class given is biochemical. The following applies: Intasa-Chromadex analytical test report, 2006; gallic as positive-control. How it is done:
Kikuzaki et al. (2002) previously published the DPPH radical-scavenging and increasing inhibition effects of ferulic, oryzanol (steryl-ferulate), BHT, α-tocopherol (Trolox) and gallic acid (27%<21%<29%<42%<76%). A TEAC test was defined as the concentration of Trolox solution with equivalent antioxidant capacity to a 1 mM concentration of the compound (Rice-Evans et al. 1996). Similar increasing values were found for α-tocopherol (Trolox), caffeic, ferulic and gallic acid (1.0<1.3<1.9<3.0). It also reflects the ability of hydrogen-donating antioxidants to scavenge the ABTS-radical). However, Davalos et al. (2004) used a different ORAC-FL (Oxygen radical absorbance capacity) test which described the μmol trolox equivalents per μmol of pure compound: BHA (synthetic), ferulic and protocatechuic (similar to gallic) with increasing values of 2.4, 4.5 and 6.7, respectively. This latter assay has been largely applied to assess free radical scavenging capacity of human plasma, proteins, DNA, pure antioxidant compounds and new antioxidants from plant and food extracts (Prior et al. 1999).

For data set [3] the following is noted: concentration of Trolox solution with equivalent antioxidant capacity to a 1 mM concentration of the compound; cited from earlier work.
For data set [4] the following is noted: ingestion or topical applications; cited from earlier work.
For data set [5] the following is noted: Davalos et al. (2004); cited from earlier work.

On to `O=C(O)c1cc(O)c(O)c(O)c1` [gallic, gallic acid], for which the “DPPH radical-scavenging inhibition effect” value in data set [1] is 76%. The “IC50 or 50% inhibition value, ABTS radical scavenging” value in data set [2] was determined as 1.5 ppm. Also, in data set [3], the TEAC was 3.0.
As to `COc1cc(/C=C/C(=O)O)ccc1O` [ferulic, ferulic acid], the “DPPH radical-scavenging inhibition effect” value in data set [1] is reported as 27%. Moreover, the “acute or chronic side effects” value in data set [4] was “No acute or chronic side effects”. Moreover, the ORAC-FL in data set [5] is recorded as 4.5 μmol trolox equivalents per μmol of pure compound. Moreover, the “IC50 or 50% inhibition value, ABTS radical scavenging” value in data set [2] was 3.3 ppm. In addition, the TEAC in data set [3] is on record as 1.9.
Consider `O=C(O)c1ccc(O)c(O)c1` [protocatechuic], for which the ORAC-FL in data set [5] is 6.7 μmol trolox equivalents per μmol of pure compound.
As to `Cc1cc(C(C)(C)C)c(O)c(C(C)(C)C)c1` [BHT], in data set [1], the “DPPH radical-scavenging inhibition effect” value was 29%.
For the compound oryzanol, the “DPPH radical-scavenging inhibition effect” value in data set [1] is 21%.
As for `O=C(O)/C=C/c1ccc(O)c(O)c1` [caffeic], in data set [3], the TEAC was 1.3.
`COc1ccc(O)c(C(C)(C)C)c1` [BHA]: in data set [5], the ORAC-FL was 2.4 μmol trolox equivalents per μmol of pure compound.
As to `Cc1c(C)c2c(c(C)c1O)CC[C@@](C)(CCC[C@H](C)CCC[C@H](C)CCCC(C)C)O2` [α-tocopherol (Trolox), α-tocopherol], the “DPPH radical-scavenging inhibition effect” value in data set [1] is given as 42%. In data set [3], the TEAC is recorded as 1.0.
